# Biological target: Xanthine dehydrogenase/oxidase (Bos taurus, UniProt P80457)
# Test: Inhibition of bovine milk xanthine oxidase using xanthine as substrate preincubated for 15 mins followed by substrate addition by spectrophotometric method
# Xanthine dehydrogenase/oxidase, sequence (P80457 whole entry): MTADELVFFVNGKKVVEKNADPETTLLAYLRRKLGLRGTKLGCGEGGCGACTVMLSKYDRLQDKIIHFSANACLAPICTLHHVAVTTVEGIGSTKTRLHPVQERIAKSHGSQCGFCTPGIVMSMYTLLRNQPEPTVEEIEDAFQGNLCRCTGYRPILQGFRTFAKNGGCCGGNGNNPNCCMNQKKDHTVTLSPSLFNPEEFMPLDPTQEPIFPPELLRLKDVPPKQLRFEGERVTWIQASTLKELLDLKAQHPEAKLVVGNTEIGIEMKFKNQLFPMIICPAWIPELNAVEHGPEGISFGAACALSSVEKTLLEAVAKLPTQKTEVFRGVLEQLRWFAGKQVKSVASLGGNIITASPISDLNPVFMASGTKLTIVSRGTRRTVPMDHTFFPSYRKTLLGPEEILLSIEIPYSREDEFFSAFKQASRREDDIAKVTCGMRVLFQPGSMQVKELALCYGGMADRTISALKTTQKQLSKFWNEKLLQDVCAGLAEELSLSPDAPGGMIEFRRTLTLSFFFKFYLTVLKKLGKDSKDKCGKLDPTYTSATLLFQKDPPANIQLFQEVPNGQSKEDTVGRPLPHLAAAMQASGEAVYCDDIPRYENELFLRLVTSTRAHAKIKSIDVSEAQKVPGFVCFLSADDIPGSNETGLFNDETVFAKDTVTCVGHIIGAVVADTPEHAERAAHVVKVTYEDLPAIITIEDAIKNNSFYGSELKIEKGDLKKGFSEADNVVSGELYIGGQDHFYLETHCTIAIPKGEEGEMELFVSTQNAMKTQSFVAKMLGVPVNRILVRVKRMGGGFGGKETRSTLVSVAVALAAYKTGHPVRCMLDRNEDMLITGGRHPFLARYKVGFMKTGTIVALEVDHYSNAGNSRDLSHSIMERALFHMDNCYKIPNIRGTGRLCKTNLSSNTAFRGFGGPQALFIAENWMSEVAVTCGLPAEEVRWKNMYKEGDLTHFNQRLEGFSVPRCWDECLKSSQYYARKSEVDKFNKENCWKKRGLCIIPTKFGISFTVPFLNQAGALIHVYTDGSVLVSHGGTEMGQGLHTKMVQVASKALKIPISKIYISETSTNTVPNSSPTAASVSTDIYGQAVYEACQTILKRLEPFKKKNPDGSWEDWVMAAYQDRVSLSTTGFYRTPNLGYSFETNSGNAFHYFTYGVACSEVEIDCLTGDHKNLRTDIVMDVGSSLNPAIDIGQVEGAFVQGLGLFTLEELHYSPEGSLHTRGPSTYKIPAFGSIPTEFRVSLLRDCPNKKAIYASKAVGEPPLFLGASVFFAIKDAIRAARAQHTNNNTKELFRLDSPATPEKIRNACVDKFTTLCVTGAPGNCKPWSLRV
row,IC50,SMILES
1,79.6 µM,C=C1CC[C@]2(C(=O)O[C@@H]3O[C@H](CO[C@@H]4O[C@H](CO)[C@@H](O)[C@H](O)[C@H]4O)[C@@H](O)[C@H](O)[C@H]3O)CC[C@]3(C)C(=CC[C@@H]4[C@@]5(C)CC[C@H](O[C@@H]6OC[C@H](O)[C@H](O)[C@H]6O)[C@@](C)(CO)[C@@H]5CC[C@]43C)[C@@H]2C1
2,18.5 µM,C=C1CC[C@]2(C(=O)O)CC[C@]3(C)C(=CC[C@@H]4[C@@]5(C)CC[C@H](O[C@@H]6OC[C@H](O)[C@H](O)[C@H]6O[C@@H]6O[C@@H](C)[C@H](O)[C@@H](O)[C@H]6O)C(C)(C)[C@@H]5CC[C@]43C)[C@@H]2C1
3,0.2 µM,C[C@H]1O[C@@H](O[C@H]2[C@H](OC[C@]3(C)[C@@H]4CC[C@]5(C)[C@H](CC=C6[C@@H]7C[C@](C)(O)[C@@H](O)C[C@]7(C(=O)O)CC[C@]65C)[C@@]4(C)CC[C@@H]3O)O[C@H](CO)[C@@H](O)[C@@H]2O)[C@H](O)[C@@H](O)[C@@H]1O
4,> 100 µM,C=C1CC[C@]2(C(=O)O[C@@H]3O[C@H](CO[C@@H]4O[C@H](CO)[C@@H](O)[C@H](O)[C@H]4O)[C@@H](O)[C@H](O)[C@H]3O)CC[C@]3(C)C(=CC[C@@H]4[C@@]5(C)CC[C@H](O[C@@H]6OC[C@H](O)[C@H](O[C@@H]7OC[C@H](O)[C@H](O)[C@H]7O)[C@H]6O)C(C)(C)[C@@H]5CC[C@]43C)[C@@H]2C1
5,> 100 µM,C=C1CC[C@]2(C(=O)O[C@H]3O[C@@H](CO[C@@H]4O[C@H](CO)[C@@H](O[C@@H]5O[C@@H](C)[C@H](O)[C@@H](O)[C@H]5O)[C@H](O)[C@H]4O)[C@H](O)[C@@H](O)[C@@H]3O)CC[C@]3(C)C(=CC[C@@H]4[C@@]5(C)CC[C@H](O[C@H]6OC[C@@H](O)[C@@H](O[C@H]7OC[C@@H](O)[C@@H](O)[C@@H]7O[C@@H]7OC[C@@H](O)[C@H](O[C@H]8OC[C@@H](O)[C@@H](O)[C@@H]8O)[C@H]7O)[C@@H]6O)C(C)(C)[C@@H]5CC[C@]43C)[C@@H]2C1
6,91.3 µM,C=C1CC[C@]2(C(=O)O[C@@H]3O[C@H](CO[C@@H]4O[C@H](CO)[C@@H](O[C@@H]5O[C@@H](C)[C@H](O)[C@@H](O)[C@H]5O)[C@H](O)[C@H]4O)[C@@H](O)[C@H](O)[C@H]3O)CC[C@]3(C)C(=CC[C@@H]4[C@@]5(C)CC[C@H](O[C@@H]6OC[C@H](O)[C@H](O[C@@H]7O[C@H](C(=O)O)[C@@H](O)[C@H](O)[C@H]7O)[C@H]6O)[C@@](C)(CO)[C@@H]5CC[C@]43C)[C@@H]2C1
7,> 100 µM,C=C1CC[C@]2(C(=O)O[C@H]3O[C@@H](CO[C@H]4O[C@@H](CO)[C@H](O)[C@@H](O)[C@@H]4O)[C@H](O)[C@@H](O)[C@@H]3O)CC[C@]3(C)C(=CC[C@@H]4[C@@]5(C)CC[C@H](O[C@H]6OC[C@@H](O)[C@@H](O)[C@@H]6O[C@@H]6O[C@@H](C)[C@H](O)[C@@H](O[C@H]7OC[C@@H](O)[C@@H](O)[C@@H]7O)[C@H]6O)C(C)(C)[C@@H]5CC[C@]43C)[C@@H]2C1
8,> 100 µM,C=C1CC[C@@]2(C(=O)O[C@@H]3O[C@H](CO[C@@H]4O[C@H](CO)[C@@H](O)[C@H](O)[C@H]4O)[C@@H](O)[C@H](O)[C@H]3O)CC[C@@]3(C)C(=CC[C@H]4[C@]5(C)CC[C@@H](O[C@@H]6OC[C@H](O)[C@H](O)[C@H]6O[C@@H]6OC[C@H](O)[C@H](O[C@H]7OC[C@@H](O)[C@@H](O)[C@@H]7O)[C@H]6O)C(C)(C)[C@H]5CC[C@@]43C)[C@H]2C1
9,> 100 µM,C[C@@H]1O[C@@H](O[C@@H]2[C@@H](O[C@H]3CC[C@]4(C)[C@H]5CC=C6[C@@H]7C[C@H](CO)CC[C@]7(C(=O)O[C@H]7O[C@@H](CO[C@@H]8O[C@H](CO)[C@@H](O[C@@H]9O[C@@H](C)[C@H](O)[C@@H](O)[C@H]9O)[C@H](O)[C@H]8O)[C@H](O)[C@@H](O)[C@@H]7O)CC[C@@]6(C)[C@]5(C)CC[C@H]4C3(C)C)OC[C@@H](O)[C@H]2O)[C@H](O)[C@H](O)[C@H]1O
10,> 100 µM,C[C@]12C[C@@H](O)[C@H](O)[C@](C)(CO)[C@@H]1CC[C@]1(C)[C@@H]2CC=C2[C@@H]3C[C@](C)(C(=O)O)[C@@H](O)C[C@]3(C(=O)O)CC[C@]21C
11,49.2 µM,C[C@]12CC[C@H](O)[C@](C)(CO[C@@H]3O[C@H](CO)[C@@H](O)[C@H](O)[C@H]3O)[C@@H]1CC[C@]1(C)[C@@H]2CC=C2[C@@H]3C[C@](C)(C(=O)O)[C@@H](O)C[C@]3(C(=O)O)CC[C@]21C
